Patent US20100331297A1, “MODULATION OF PROTEIN TRAFFICKING” (FOLDRX PHARMACEUTICALS, INC., priority 2007, published 2010)

Assays:
Format in all cases: cell-based
ΔF508 CFTR [1] = target: T1, ΔF508 CFTR (Homo sapiens, UniProt P13569, DEL508-508); experiment: Potentiator activity, YFP halide (iodide) quenching assay in FRT cells expressing ΔF508 CFTR, 27° C. pre-incubation; set-up: expressed in transfected cells; host or cells: Fischer rat thyroid (FRT) cells; conditions: FRT cells ΔF508 CFTR/YFP, 24 hours at 27° C., compound with forskolin 30 min
T1 sequence (P13569 with tags, fused parts or gaps DEL508-508): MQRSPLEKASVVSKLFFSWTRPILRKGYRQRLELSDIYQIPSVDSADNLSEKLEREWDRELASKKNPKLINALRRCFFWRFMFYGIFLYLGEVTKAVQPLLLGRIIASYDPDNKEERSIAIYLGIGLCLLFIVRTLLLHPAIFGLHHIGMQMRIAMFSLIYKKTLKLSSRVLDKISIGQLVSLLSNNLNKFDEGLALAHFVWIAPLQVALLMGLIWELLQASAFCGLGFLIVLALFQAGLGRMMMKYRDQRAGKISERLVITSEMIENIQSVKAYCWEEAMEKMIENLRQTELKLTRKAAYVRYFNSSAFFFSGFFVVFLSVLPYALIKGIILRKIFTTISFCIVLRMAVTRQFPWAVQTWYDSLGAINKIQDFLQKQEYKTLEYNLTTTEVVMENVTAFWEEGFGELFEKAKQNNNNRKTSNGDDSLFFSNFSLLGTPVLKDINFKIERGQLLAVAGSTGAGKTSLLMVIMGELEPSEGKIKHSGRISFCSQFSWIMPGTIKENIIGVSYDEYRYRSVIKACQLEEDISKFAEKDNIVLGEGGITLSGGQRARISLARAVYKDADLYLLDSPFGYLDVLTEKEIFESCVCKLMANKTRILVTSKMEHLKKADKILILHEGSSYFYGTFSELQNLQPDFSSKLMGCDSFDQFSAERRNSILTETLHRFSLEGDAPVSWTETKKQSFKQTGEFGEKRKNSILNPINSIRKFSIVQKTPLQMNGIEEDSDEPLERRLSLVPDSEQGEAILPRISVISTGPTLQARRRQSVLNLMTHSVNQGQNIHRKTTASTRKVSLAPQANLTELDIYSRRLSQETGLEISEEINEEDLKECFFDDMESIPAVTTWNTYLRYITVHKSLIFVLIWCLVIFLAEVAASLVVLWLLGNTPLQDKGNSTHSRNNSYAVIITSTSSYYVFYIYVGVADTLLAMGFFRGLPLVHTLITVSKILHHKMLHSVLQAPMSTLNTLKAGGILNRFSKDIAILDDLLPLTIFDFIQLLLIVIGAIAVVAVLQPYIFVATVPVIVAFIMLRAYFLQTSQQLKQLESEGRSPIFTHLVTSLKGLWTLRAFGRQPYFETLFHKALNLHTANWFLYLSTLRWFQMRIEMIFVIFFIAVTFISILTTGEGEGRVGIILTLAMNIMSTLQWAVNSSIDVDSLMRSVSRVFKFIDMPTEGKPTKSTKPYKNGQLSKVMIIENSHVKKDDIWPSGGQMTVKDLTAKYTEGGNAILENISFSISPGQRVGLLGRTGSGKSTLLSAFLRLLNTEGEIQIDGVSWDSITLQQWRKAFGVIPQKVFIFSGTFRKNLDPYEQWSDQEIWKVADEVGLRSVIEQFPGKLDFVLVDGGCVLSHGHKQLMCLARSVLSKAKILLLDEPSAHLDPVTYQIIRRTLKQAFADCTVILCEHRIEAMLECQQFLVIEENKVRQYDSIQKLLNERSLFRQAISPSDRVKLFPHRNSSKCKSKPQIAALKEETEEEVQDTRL
In short: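 FRT cells stably co-expressing ΔF508 CFTR and halide-sensitive YFP, grown 24 h at 37° C. then 24 h at 27° C. to raise surface CFTR. Compounds in PBS with forskolin, 30 min at 37° C.; iodide injected and YFP quenching (ex 485/em 530 nm) followed. EC50 from normalized endpoint fluorescence.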

ypt1^ts cells = experiment: Rescue of growth of ypt1^ts mutant yeast (OD600); conditions: Saccharomyces cerevisiae, read-out: Ypt1-ts MRC (Minimum Rescue Concentration), ypt1^ts cells, 35° C. and 37° C., OD600; multiple results separated by a comma
Source text: The activity of the compounds as modulators of protein trafficking may be measured in the assays described herein that evaluate the ability of a compound to rescue an impairment in protein trafficking. For example, the yeast mutant cell line ypt1^ts can be used to identify compounds that rescue cells from the lethal phenotype of a mutant YPT1 allele (see, e.g., Examples and Schmitt et al. (1988) Cell 53:635-47). The activity may be measured, for example, in a whole yeast cell assay using 384-well screening protocol and an optical density measurement.
The yeast mutant cell line ypt1^ts suppresses, in a temperature dependent fashion, the dominant-lethal phenotype of a mutant YPT1 allele (Schmitt et al. (1988) Cell 53:635-47). The yeast mutant cell line ypt1^ts contains an allele of YPT1 that has two point mutations: one that changes an asparagine at position 121 to a isoleucine (N121I) and another that changes an alanine at position 161 to a valine (A161V). The N121I mutation causes dominant lethality by itself, but lethality is suppressed by the second mutation, resulting in a recessive loss of function phenotype at the restrictive temperatures. ypt1^ts cells grow normally at temperatures up to 25° C., but are growth arrested at 37° C. (Id.).
Compounds were screened to assess their ability to restore growth of ypt1^ts cells. The effect of the compounds was measured on ypt1^ts cells cultured at room temperature (permissive temperature), 37° C. (non-permissive temperature), and 35° C. (semi-permissive temperature).
To determine if the test compounds could rescue the ypt1^ts mutant phenotype, ypt1^ts cells were grown overnight in synthetic complete (SC) media supplemented with 2% glucose at room temperature. Log phase cells were diluted into SC 2% glucose media to an OD600 of 0.003. 100 μL of this culture was then aliquoted into each well of 96-well flat bottom microtiter plates. 1 μL of the test compounds dissolved in DMSO (at a concentration range from 5 mM-0.005 mM) or of DMSO alone was added to each well (50 μM-0.05 μM final concentration in 1% DMSO). Plates were mixed by vortexing and incubated at 35° C. and 37° C. Compound rescue of the ypt1^ts temperature sensitive defect was assessed by measuring the OD600 (optical density at 600 nm; cell growth) of the cultures. Plates incubated at 35° C. were measured at 24 and 40 hours incubation time while plates grown at 37° C. were measured after 40 hours of incubation.
Assays monitoring the rescue of ypt1^ts mutants were performed using a vehicle, a positive control (calcium), and the compounds identified in Table II. Results in Table II corresponding to an MRC (Minimum Rescue Concentration) for ypt1^ts of greater than or equal to 50 micromolar are labeled +; of an MRC for ypt1^ts of 10-50 micromolar are labeled ++; and of an MRC for ypt1^ts of less than 10 micromolar are labeled +++. Multiple results for a particular compound are separated by a comma.

ΔF508 CFTR [2] = target: T1, ΔF508 CFTR; experiment: Corrector activity, YFP halide (iodide) quenching assay in FRT cells expressing ΔF508 CFTR; set-up: expressed in transfected cells; host or cells: Fischer rat thyroid (FRT) cells; conditions: FRT cells ΔF508 CFTR/YFP, 24 hours with compound at 37° C., forskolin and genistein; read-out: Corrector EC50
In short: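 FRT cells co-expressing ΔF508 CFTR and halide-sensitive YFP were incubated 24 h at 37° C with compounds, then stimulated 30 min at 37° C in PBS with forskolin and genistein. Endpoint fluorescence after iodide injection was normalized to initial reading; EC50 from 4-parameter fit with bottom constrained to DMSO control.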

TS217 cells = experiment: Rescue of cell viability from α-synuclein-induced cytotoxicity (cellular ATP, […]); conditions: tetracycline 5 days, 3 μM concentration, P<0.02
Description: Treatment of TS217 cells with 0.1 μg/mL tetracycline for three to six days induces expression of α-synuclein, which can be cytotoxic. […] After the five day treatment, cells were lysed and assayed for intracellular ATP concentration as a function of cell viability. The relative viability of the cells was assessed by measuring the cellular ATP level in cell lysates using a […]® Plus Bioassay kit (Cambrex, Rockland, Me.). Relative cell viability was calculated as the ratio of induced cells to control cells (cells not treated with tetracycline), as an indication of α-synuclein-induced cytotoxicity. […] By contrast, cells treated with compound 90 at 3 μM concentration reduced the α-synuclein-induced cytotoxicity by 45% (P<0.02) as compared to the control wells lacking the compound. Thus, compound 90 rescues cell viability from α-synuclein-induced cytotoxicity.

ΔF508 CFTR [3] = target: T1, ΔF508 CFTR; experiment: Stabilization of ΔF508 CFTR in CFBE cells (western blot, densitometry); conditions: 16 hours at 37° C., 1.25-10 μM (compound 25), 1-10 μM (compound 5)
Source text: In addition, efficacy of a compound can be evaluated before (first in time), concomitantly or subsequently to the above-mentioned test modalities by monitoring, e.g., (i) modulation (e.g., an improvement) of the stability of a trafficking defective protein, (ii) modulation (e.g., an improvement) of proper, physiological trafficking of the trafficking defective protein, or (iii) modulation (e.g., a restoration) in one or more functions of a trafficking defective protein. For example, in some cases, proteins (e.g., protein mutants such as ΔF508 CFTR) are prematurely degraded. Thus, the efficacy of a given compound to modulate protein trafficking can be determined by monitoring the stability of a protein in the presence as compared to the absence of the compound. For example, cells expressing a trafficking defective protein (e.g., expressing endogenously or expressing an exogenous transgene encoding a trafficking defective protein such as ΔF508 CFTR) can be cultured in the presence or absence of a compound for at least 1 hour (e.g., at least 2 hours, at least 4 hours, at least 6 hours, at least 8 hours, at least 12 hours, at least 16 hours, at least 24 hours, at least 36 hours, or at least 48 hours). Cell lysates can be prepared from the different populations of cells, suspended in Laemmli buffer (with or without reducing agent) and subjected to sodium dodecyl sulfate-polyacrylamide gel electrophoresis (SDS-PAGE). Using antibodies that specifically recognize the trafficking defective protein (e.g., CFTR), the amount of the protein in the presence as compared to in the absence of a compound can be determined by western or dot-blotting techniques. […] Where a modified state (e.g., glycosylation or phosphorylation) of a protein is indicative of increased stability, a change in the modified state of a protein can also be used to determine if a compound stabilizes the trafficking defective protein. For example, the amount of glycosylated CFTR (e.g., ΔF508 CFTR) can be assessed in the presence as compared to the absence of a compound.
The compounds can be tested for their ability to stabilize ΔF508 CTFR. CFBE cells, a cell line generated by transformation of cystic fibrosis tracheo-bronchial cells (ΔF508 CTFR homozygous) with SV40 (Bruscia et al. (2002) Gene Ther. 9(11):683-685), can be cultured with 10 μM of the selected compounds, or 10 μM VRT-325 for 16 hours at 37° C. (VRT-325 is described in, e.g., Van Goor et al. (2006) Am. J. Physiol. Lung Cell Mol. Physiol. 290:L1117-L1130). A population of cells can also be cultured with the dimethyl sulfoxide (DMSO) solvent as a control.
Following incubation, cells were lysed, solubilized in Laemmli buffer, and subjected to SDS-PAGE. CFTR protein were visualized by western blotting using an antibody specific for CFTR. Culturing CFBE cells with compound 25 (see Table I for structure) increased the amount of cellular ΔF508 CFTR protein.
The effect of different concentrations of compound 25 on ΔF508 CFTR was tested in a dose response experiment. […] The relative amounts of glysosylated and unglycosylated ΔF508 CFTR protein were visualized by western blotting (FIG. 10A), and the band intensities wer quantitated by scanning and densitometry (FIG. 10B). […] The relative amounts of glysosylated and unglycosylated ΔF508 CFTR protein were visualized by western blotting (FIG. 11A), and the band intensities wer quantitated by scanning and densitometry (FIG. 11B).

Row | Compound | EC50 (ΔF508 CFTR [1]) | minimal effective concentration (ypt1^ts cells) | EC50 (ΔF508 CFTR [2]) | reduction of α-synuclein-induced cytotoxicity compared to control wells (TS217 cells) | glycosylated (Band B) ΔF508 CFTR protein vs absence of compound, dose response (ΔF508 CFTR [3])
1 | CC(C)(C)n1nc(Oc2ccccc2)c2c(N)ncnc21 [compound 90, 1-tert-Butyl-3-phenoxy-1H-pyrazolo[3,4-d]pyrimidin-4-ylamine] | < 2000 nM | > 50 µM | > 15 µM | 45% | –
2 | CC(C)(C)n1nc(Cc2cccc3ccccc23)c2c(N)ncnc21 [compound 5] | – | < 10 µM | > 15 µM | – | increased
